Measurements as given in patent US20220396565A1 (Hoffmann-La Roche Inc., priority 2020, published 2022).
Structures can show the parent of a compound that is named as a salt.

Tested on: Acinetobacter baumannii ATCC17978
Assay: Antimicrobial susceptibility testing: 90% growth inhibitory concentration (IC90) determination, Iso-Sensitest broth
Type: cell-based
Settings: 90% growth inhibitory concentration, Acinetobacter baumannii ATCC17978, Iso-Sensitest broth; read-out: ATCC 17978 IC90
In short: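 Twofold serial dilutions (e.g. 10 to 0.02 μM final) were tested in Iso-Sensitest broth against ~5×10^(5) CFU/ml at 35±2 °C. OD600 was read every 20 min over 16 h. IC90 was derived from growth inhibition during the logarithmic phase.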

COc1ccc(-c2cnc(C(=O)Nc3ccc(C(=O)N4CCN(CCN(C)C)CC4)c(Cl)c3)n2C)c(F)c1F [Example 278, N-[3-chloro-4-[4-[2-(dimethylamino)ethyl]piperazine-1-carbonyl]phenyl]-5-(2,3-difluoro-4-methoxy-phenyl)-1-methyl-imidazole-2-carboxamide formate]
IC90: 80 nM
